# According to patent publication US9388126B2, “Sigma receptor ligands and methods of modulating cellular protein homeostasis using same” (Drexel University, priority 2012, dated 2016):
# Like-named read-outs stand apart in the source and are kept apart here.
# Legend:
# MDA-MB-468 cells = assay: ER stress / UPR marker immunoblots; assay type: cell-based, human; conditions: for EC50: mean of two determinations
# Method: (§1) Cells were lysed and proteins extracted in a modified RIPA buffer (25 mM Tris-HCl pH 7.6, 150 mM NaCl, 1% NP-40, 1% sodium deoxycholate and 0.1% SDS) supplemented with 10% glycerol (volume/volume), complete protease inhibitor cocktail (Roche), and Halt phosphatase inhibitor cocktail (Pierce). Approximately 10-20 μg of detergent soluble protein were resolved on NOVEX 10-20% polyacrylamide Tris-glycine gels (InVitrogen). Immunoblots were performed in a 20 mM Tris-buffered 137 mM saline solution (pH 7.6) containing 0.1% Tween-20 (polyoxyethylene (20) sorbitan monolaurate) and 5% (weight/volume) blotting grade non-fat dry milk (BioRad). The Lumigen PS-3 enhanced chemiluminescence kit (GE Healthcare) was used to reveal immunoblotted proteins.
# Whether Sigma antagonists immediately induce autophagy or whether it is activated downstream of other cellular events was next examined. As Sigma1 is highly enriched in the ER, next examined was whether antagonist treatment could induce ER stress mediated UPR. Components of the IRE1α-JNK1/2 and eIF2α-ATF4 branches of the UPR as well as the UPR-associated ER chaperone, GRP78/BiP, were assayed as indicators of activated UPR.
# All of the above-mentioned markers of ER stress were evaluated following treatment with increasing doses of Sigma ligands in order to compare UPR with the dose-responsive activation of autophagy. Sigma1 antagonist, IPAG, activated the UPR in a dose-responsive manner (FIG. 6).
# Sigma1 in SKBR3 cells = molecular target: T1, Sigma1 in SKBR3 cells (Homo sapiens, UniProt Q99720); assay: Sigma1 protein level and sub-cellular fractionation; assay type: cell-based; conditions: 12-16 hours
# T1 construct: endogenous in cells; host or cells: SKBR3
# Method: FIG. 66, comprising FIGS. 66A-66H, illustrates the non-limiting mechanism(s) of Sigma1 ligand actions, wherein Sigma ligand treatment induces differential localization of Sigma1. […] FIG. 66B is an immunoblot of the fractions collected from biochemical sub-cellular fractionation assay. […] FIG. 66C is a graph illustrating quantification of bands in FIG. 66B. FIG. 66D is a set of images of confocal immunofluorescence microscopy of Sigma1 in SKBR3 cells treated for 12-16 hours with IPAG. Green signal indicated Sigma1, blue signal (DAPI) indicated nucleus. FIG. 66E is a set of graphs illustrating quantification of fractions collected from biochemical sub-cellular fractionation assay performed using SKBR3 cells. […] Functional and physical association with LC3II and functional interaction with VCP are reported in the literature. FIG. 66H is a set of confocal microscopy images, with evidence of co-localization of poly-ubiquitylated proteins and p62SQSTM. […] The ubiquitin-p62SQSTM co-localization and distribution pattern changed subsequent to IPAG treatment. […] Sigma1 functional related and physical associated proteins were redistributed to the other parts of the cell, especially into autophagosome.
# [1] = tested on: MDA-MB-468 breast adenocarcinoma cells; assay: LC3 lipidation (LC3II) immunoblot; assay type: cell-based, human; conditions: 24 hours
# Method: as §1
# Initially, an established immunoblot-based assay to detect microtubule associated protein light chain 3 (LC3) lipidation was used to test for the activation of autophagy. […] Since transient transfections can produce spurious GFP-LC3 aggregates, stable GFP-LC3 transfected populations of MDA-MB-468 (GFP-LC3) were generated. These cells were treated for 24 hours with increasing concentrations of Sigma receptor antagonists and agonists, and were compared to basal and DMSO treated controls (FIGS. 4B & 4C).
# Sigma1 = Sigma1 (Homo sapiens, UniProt Q99720); conditions: read-out: Ki, affinity for the Sigma1; cited from earlier work
# HER2/3 in SkBr-3 cells = assay: HER2 and HER3 level immunoblots; assay type: cell-based, human; conditions: 10 μM for 1-to-24 hours; 1, 3, 10, 20 μM for 12 hours
# Text: FIG. 67, comprising FIGS. 67A-67F, illustrates the finding that Sigma1 ligands may be used to modulate (in this case, decrease) the levels of growth factor receptors such as HER2 and HER3 in breast cancer cells, in the absence of detectable cell death. […] Short exposure to IPAG or lower dosage induces ubiquitin-mediated autophagosomal degradation of HER2/3. Prolonged IPAG treatment or higher dosage caused translational arrest. […] FIG. 67A is a set of immunoblots of HER2 following treatment with IPAG. Detergent soluble whole-cell lysates were solved by denaturing SDS-PAGE. (i) 1-to-24 hour (h) treatment with 10 μM IPAG or 11 μM thapsigargin (TG). (ii) Following 12 hour treatment with 1, 3, 10, 20 μM IPAG. FIG. 67B is a set of immunoblots of HER3 following treatment with IPAG. Detergent soluble whole-cell lysates were solved by denaturing SDS-PAGE. (i) 1-to-24 hour (h) treatment with 10 μM IPAG or 1 μM thapsigargin (TG). (ii) Following 12 hour treatment with 1, 3, 10, 20 μM IPAG. FIG. 67C is a set of immunoblots of detergent soluble whole-cell lysates solved by denaturing SDS-PAGE. […] (iii) Quantification of bands in (i). […] (ii) Quantification of HER3 band in DMSO (vehicle control) treated conditions. (iii) Quantification of HER3 band in IPAG treated conditions.
# T1 sequence (Q99720 whole entry): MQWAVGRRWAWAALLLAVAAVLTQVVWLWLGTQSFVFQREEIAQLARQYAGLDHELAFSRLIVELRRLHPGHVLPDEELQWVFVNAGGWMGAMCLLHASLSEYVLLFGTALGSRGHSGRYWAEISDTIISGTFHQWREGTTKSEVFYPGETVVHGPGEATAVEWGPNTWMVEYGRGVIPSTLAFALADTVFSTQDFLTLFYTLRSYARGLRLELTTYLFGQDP
# Sequence of Sigma1 (Q99720 whole entry): as above
smiles,measurement,setting,value
"N=C(Nc1ccc(I)cc1)NC1C2CC3CC(C2)CC1C3 (centres unmarked) [IPAG, 1-(4-iodophenyl)-3-(2-adamantyl)guanidine]",activation of UPR markers at a dose that does not produce autophagosomes,"MDA-MB-468 cells; 1 μM, 24 hours",salient activation of at least seven markers of UPR
same,EC50,"MDA-MB-468 cells; 24 hours, read-out: EC50 for phosphorylation of JNK (Thr183/Tyr185)",1700 nM
same,EC50,"MDA-MB-468 cells; Homo sapiens, MDA-MB-468, 24 h, read-out: EC50 for induction of ATF4",500 nM
same,EC50,"MDA-MB-468 cells; Homo sapiens, MDA-MB-468, 24 h, read-out: EC50 for induction of IRE1α",900 nM
same,EC50,"MDA-MB-468 cells; Homo sapiens, MDA-MB-468, 24 h, read-out: EC50 for phosphorylation of JNK (Thr183/Tyr185)",1600 nM
same,EC50,"MDA-MB-468 cells; Homo sapiens, MDA-MB-468, 24 h, read-out: EC50 for phosphorylation of eIF2α (Ser51)",2300 nM
same,EC50,"MDA-MB-468 cells; Homo sapiens, MDA-MB-468, 24 h, read-out: EC50 for phosphorylation of p38MAPK (Thr180/Tyr182)",500 nM
same,EC50,"MDA-MB-468 cells; Homo sapiens, MDA-MB-468, 24 hours, read-out: EC50 for induction of GRP78/BiP",1400 nM
same,Sigma1 steady-state protein levels,Sigma1 in SKBR3 cells,Sigma1 steady-state protein levels do not change
same,Sigma1 sub-cellular distribution,Sigma1 in SKBR3 cells,Sigma1 distribution is altered
same,conversion of LC3 to LC3II (autophagosome formation),[1]; 10 μM,converted LC3 to LC3II
same,EC50,"[1]; Homo sapiens, MDA-MB-468, two independent determinations, read-out: mean EC50 of LC3 lipid conjugation (LC3II induction)",7000 nM
same,Ki,Sigma1,5 ± 2 nM
same,levels of HER2/3,HER2/3 in SkBr-3 cells,time and dose-dependently causes decreased levels of HER2/3
